# Data reported in PubChem BioAssay AID2060912 (Molecular Pharmacology Branch, DTP, NCI, 2025).
# Test system: HUVEC/MSC spheroids viability
# Test: Human HUVEC/MSC cell line growth inhibition [KRAS2];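 for viability, T/C: percent of DMSO vehicle control luminescence so 100% = untreated viability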
# Details: for viability, T/C: stronger effect = lower value
# Method in brief: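 HUVEC + hMSC stromal spheroids only, no malignant cells; 37 °C, 5% CO2. Drugs singly and in pairs, half-log series down from clinical Cmax (max 10 microM if Cmax undetermined).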
smiles,measurement,setting,value
CC(C)n1nc(-c2ccc3oc(N)nc3c2)c2c(N)ncnc21 + CC1OCC2(CCN(c3cnc(Sc4ccnc(N)c4Cl)c(N)n3)CC2)C1N,IC50,"curve of first compound, second compound 0.0316 µM",14.8 nM
same,IC50,"curve of first compound, second compound 0.1 µM",8.3 nM
same,IC50,"curve of first compound, second compound 0.316 µM",3.12 nM
same,IC50,"curve of first compound, second compound 1 µM",2.42 nM
same,IC50,"curve of first compound, second compound 3.16 µM",1.61 nM
same,IC50,"curve of first compound, second compound 10 µM",< 0.316 nM
same,"viability, T/C","second compound 0.0316 µM, first compound 0.000316 µM",108%
same,"viability, T/C","second compound 0.0316 µM, first compound 0.001 µM",95.2%
same,"viability, T/C","second compound 0.0316 µM, first compound 0.00316 µM",63.9%
same,"viability, T/C","second compound 0.0316 µM, first compound 0.01 µM",53.5%
same,"viability, T/C","second compound 0.0316 µM, first compound 0.0316 µM",50.4%
same,"viability, T/C","second compound 0.0316 µM, first compound 0.1 µM",43.9%
same,"viability, T/C","second compound 0.1 µM, first compound 0.000316 µM",100%
same,"viability, T/C","second compound 0.1 µM, first compound 0.001 µM",93.8%
same,"viability, T/C","second compound 0.1 µM, first compound 0.00316 µM",63.3%
same,"viability, T/C","second compound 0.1 µM, first compound 0.01 µM",49.6%
same,"viability, T/C","second compound 0.1 µM, first compound 0.0316 µM",43.6%
same,"viability, T/C","second compound 0.1 µM, first compound 0.1 µM",36.4%
same,"viability, T/C","second compound 0.316 µM, first compound 0.000316 µM",85%
same,"viability, T/C","second compound 0.316 µM, first compound 0.001 µM",81.3%
same,"viability, T/C","second compound 0.316 µM, first compound 0.00316 µM",49.2%
same,"viability, T/C","second compound 0.316 µM, first compound 0.01 µM",47.5%
same,"viability, T/C","second compound 0.316 µM, first compound 0.0316 µM",42.6%
same,"viability, T/C","second compound 0.316 µM, first compound 0.1 µM",35.6%
same,"viability, T/C","second compound 1 µM, first compound 0.000316 µM",83.8%
same,"viability, T/C","second compound 1 µM, first compound 0.001 µM",71.2%
same,"viability, T/C","second compound 1 µM, first compound 0.00316 µM",43.4%
same,"viability, T/C","second compound 1 µM, first compound 0.01 µM",33.1%
same,"viability, T/C","second compound 1 µM, first compound 0.0316 µM",33.3%
same,"viability, T/C","second compound 1 µM, first compound 0.1 µM",28.9%
same,"viability, T/C","second compound 3.16 µM, first compound 0.000316 µM",62.6%
same,"viability, T/C","second compound 3.16 µM, first compound 0.001 µM",60%
same,"viability, T/C","second compound 3.16 µM, first compound 0.00316 µM",36.5%
same,"viability, T/C","second compound 3.16 µM, first compound 0.01 µM",27.7%
same,"viability, T/C","second compound 3.16 µM, first compound 0.0316 µM",22%
same,"viability, T/C","second compound 3.16 µM, first compound 0.1 µM",23.1%
same,"viability, T/C","second compound 10 µM, first compound 0.000316 µM",48.2%
same,"viability, T/C","second compound 10 µM, first compound 0.001 µM",41.8%
same,"viability, T/C","second compound 10 µM, first compound 0.00316 µM",22.3%
same,"viability, T/C","second compound 10 µM, first compound 0.01 µM",16.2%
same,"viability, T/C","second compound 10 µM, first compound 0.0316 µM",16.8%
same,"viability, T/C","second compound 10 µM, first compound 0.1 µM",10.7%
Cn1nccc1Nc1nccc(-c2cc3c(s2)C(C)(C)N(CCN2CCOCC2)C3=O)n1,"viability, T/C",compound 0.0316 µM,91.1% [middle of 5 runs]
same,"viability, T/C",compound 0.1 µM,105% [middle of 5 runs]
same,"viability, T/C",compound 1 µM,99.3% [middle of 5 runs]
same,"viability, T/C",compound 3.16 µM,40.5% [middle of 5 runs]
same,"viability, T/C",compound 10 µM,5.24% [middle of 5 runs]
same,IC50,curve of compound,2.65 µM [middle of 5 runs]
Cn1ncnc1[C@H]1c2n[nH]c(=O)c3cc(F)cc(c23)N[C@@H]1c1ccc(F)cc1 + C=CC(=O)N1CCN(c2nc(OCC3CCCN3C)nc3c2CCN(c2cccc4cccc(C)c24)C3)CC1CC#N,IC50,"curve of first compound, second compound 0.00949 µM",> 100 nM
same,IC50,"curve of first compound, second compound 0.03 µM",> 100 nM
same,IC50,"curve of first compound, second compound 0.0949 µM",> 100 nM
same,IC50,"curve of first compound, second compound 0.3 µM",> 100 nM
same,IC50,"curve of first compound, second compound 0.949 µM",> 100 nM
same,IC50,"curve of first compound, second compound 3 µM",> 100 nM
same,"viability, T/C","second compound 0.00949 µM, first compound 0.000316 µM",88%
same,"viability, T/C","second compound 0.00949 µM, first compound 0.001 µM",103%
same,"viability, T/C","second compound 0.00949 µM, first compound 0.00316 µM",85.6%
same,"viability, T/C","second compound 0.00949 µM, first compound 0.01 µM",66.3%
same,"viability, T/C","second compound 0.00949 µM, first compound 0.0316 µM",84.8%
same,"viability, T/C","second compound 0.00949 µM, first compound 0.1 µM",85.2%
same,"viability, T/C","second compound 0.03 µM, first compound 0.000316 µM",96.5%
same,"viability, T/C","second compound 0.03 µM, first compound 0.001 µM",75.2%
same,"viability, T/C","second compound 0.03 µM, first compound 0.00316 µM",77.3%
same,"viability, T/C","second compound 0.03 µM, first compound 0.01 µM",77.9%
same,"viability, T/C","second compound 0.03 µM, first compound 0.0316 µM",95.6%
same,"viability, T/C","second compound 0.03 µM, first compound 0.1 µM",86.4%
same,"viability, T/C","second compound 0.0949 µM, first compound 0.000316 µM",86.7%
same,"viability, T/C","second compound 0.0949 µM, first compound 0.001 µM",100%
same,"viability, T/C","second compound 0.0949 µM, first compound 0.00316 µM",75%
same,"viability, T/C","second compound 0.0949 µM, first compound 0.01 µM",81.2%
same,"viability, T/C","second compound 0.0949 µM, first compound 0.0316 µM",82.6%
same,"viability, T/C","second compound 0.0949 µM, first compound 0.1 µM",78.6%
same,"viability, T/C","second compound 0.3 µM, first compound 0.000316 µM",78.3%
same,"viability, T/C","second compound 0.3 µM, first compound 0.001 µM",90.9%
same,"viability, T/C","second compound 0.3 µM, first compound 0.00316 µM",75.7%
same,"viability, T/C","second compound 0.3 µM, first compound 0.01 µM",71.9%
same,"viability, T/C","second compound 0.3 µM, first compound 0.0316 µM",72.7%
same,"viability, T/C","second compound 0.3 µM, first compound 0.1 µM",86.2%
same,"viability, T/C","second compound 0.949 µM, first compound 0.000316 µM",61.8%
same,"viability, T/C","second compound 0.949 µM, first compound 0.001 µM",74.2%
same,"viability, T/C","second compound 0.949 µM, first compound 0.00316 µM",78.8%
same,"viability, T/C","second compound 0.949 µM, first compound 0.01 µM",65.7%
same,"viability, T/C","second compound 0.949 µM, first compound 0.0316 µM",74.9%
same,"viability, T/C","second compound 0.949 µM, first compound 0.1 µM",63.1%
same,"viability, T/C","second compound 3 µM, first compound 0.000316 µM",96.7%
same,"viability, T/C","second compound 3 µM, first compound 0.001 µM",80.2%
same,"viability, T/C","second compound 3 µM, first compound 0.00316 µM",88.3%
same,"viability, T/C","second compound 3 µM, first compound 0.01 µM",88.5%
same,"viability, T/C","second compound 3 µM, first compound 0.0316 µM",77.6%
same,"viability, T/C","second compound 3 µM, first compound 0.1 µM",83.9%
